Experimental data taken from patent US12655091B2, “N-benzyl-alpha-aminoamides as anaphase-promoting complex/cyclosome (APC/C) inhibitors” (CONSEJO SUPERIOR DE INVESTIGACIONES CIENTÍFICAS (CSIC), priority 2020, dated 2026).
Several values for one entry are separate records, joined by “and”; a condition that tells them apart may be missing. Equal entries are not always repeated. Entries after “also recorded” stand apart in the source; their conditions may differ. Where two headings read alike, the source gives them in different places. Blank lines part the entries; values can stand above or below the compound they belong to.

Experiments:
[1] = target: T1, APC/C activation by Cdc20 (Homo sapiens, UniProt Q12834); test: Western blot of Cyclin B1 levels (inhibition of APC/C activation by Cdc20); assay type: cell-based; conditions: HCC-38 cells, FIG. 9
T1 construct: endogenous in cells; the method paragraph speaks of HeLa cells
T1 sequence (Q12834 whole entry): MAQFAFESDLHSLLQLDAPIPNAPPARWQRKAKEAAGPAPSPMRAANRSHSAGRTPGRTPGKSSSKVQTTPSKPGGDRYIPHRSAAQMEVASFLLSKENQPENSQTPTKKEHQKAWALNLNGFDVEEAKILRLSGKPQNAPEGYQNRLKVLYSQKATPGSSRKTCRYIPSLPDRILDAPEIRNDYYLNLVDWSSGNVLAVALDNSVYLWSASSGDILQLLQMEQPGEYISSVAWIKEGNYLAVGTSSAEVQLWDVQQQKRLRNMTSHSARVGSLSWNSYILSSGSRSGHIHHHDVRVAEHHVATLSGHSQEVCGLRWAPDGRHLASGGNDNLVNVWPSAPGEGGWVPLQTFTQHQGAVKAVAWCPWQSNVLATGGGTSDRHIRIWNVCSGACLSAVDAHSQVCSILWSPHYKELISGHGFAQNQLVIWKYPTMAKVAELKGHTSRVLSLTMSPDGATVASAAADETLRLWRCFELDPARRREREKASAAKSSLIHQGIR
Protocol: FIG. 9. […] Consequently, non-ubiquitylated Cyclin B escapes degradation by the proteasome. […] HCC-38 cells at a density of 200,000 cells per well were used in this study.
The entirety of the following procedure was carried out under aseptic conditions. HeLa cells were counted and seeded into clear bottom 6-well plates (Greiner Bio-One) at a density of 200,000 cells/well in a volume of 2 ml and placed in an incubator (37° C., 5% CO2) overnight. The following day medium was aspired and 1.5 ml of treatment was added to wells. Cells were treated with controls (medium alone) and compounds. All stock solutions of the small compounds were prepared by resuspension of the solid in DSMO, then diluted in medium to the final concentrations being tested. The effect of these compounds on mitosis was analysed by measuring Cyclin B1 levels, a downstream target of APC/C-Cdc20. Cells were incubated and had 24 hours treatment exposure. Plates were then placed on ice and solution from each well was aspired. […]

[2] = system: HCC-38 triple negative breast cancer cells; test: Clonogenic assay of HCC-38 cells; assay type: cell-based; conditions: HCC-38, 24 hours treatment, stained after 12 days, FIG. 7
Protocol: FIG. 7. Clonogenic assay of HCC-38 cells treated with DMSO (1.2% v/v), the Mps1 kinase inhibitor Reversine, the Cdc20 binder Apcin and compound o-TFB-Tyr. The clones were stained after 12 days incubation at 37 Celsius. Following treatment of the HCC38 cells with the compounds for 24 hours, the medium was exchanged every 48 hrs.
The entirety of the following procedure was carried out under aseptic conditions. HeLa cells were counted and seeded into clear bottom 6-well plates (Greiner Bio-One) at density 500 cells/well (250 cells/ml). 2 ml of cells were added to each well and placed in the incubator (37° C., 5% CO2) overnight. The following day medium was aspired and 1.5 ml of treatment was added to wells. Cells were treated with control (medium alone) and compounds. All stock solutions of compounds were prepared by resuspension of the solid in DMSO, then diluted in medium to the final concentrations being tested. HeLa cells viability was measured using clonogenic assay, a cell survival-based assay that determines cell reproductive death after treatment with cytotoxic agents. Cells were incubated and had 72 hours treatment exposure. […]
Each well of the clonogenic assay was then scanned using an Axiozoom Zeiss Axioplan fluorescence microscope equipped for DIC imaging and fluorescence imaging and analysed using the ImageJ2 image-processing software (Fiji). […]

[3] = Kinetic solubility, turbidimetric method; assay type: physicochemical
Protocol: Kinetic solubility. This is a valuable initial screen that was carried out prior to starting ADME test in order to identify potential issues and to determine appropriate concentration ranges. Kinetic solubility was measured using a turbidimetric method.

[4] = Metabolic stability test (liver microsomes); assay type: in vitro ADME, Human
Excerpt: The liver is the major drug metabolising organ for the large majority of pharmaceutical drugs. A good in vitro model to investigate drug metabolism is based on the use of microsomes, a subcellular fraction of the liver.

[5] = system: plasma protein; test: Plasma protein binding assay (human); assay type: in vitro ADME
Excerpt: (§1) Non-specific plasma protein binding can greatly affect the extent of free drug concentration which may influence the lead compound's subsequent inhibitory potential (see table 6 below).

[6] = Plasma protein binding assay (human); assay type: in vitro ADME; conditions: plasma spiked 1 side; for fraction unbound: plasma
Excerpt: as §1

[7] = target: CYP3A4 (Homo sapiens, UniProt P08684); test: Cytochrome P450 inhibition IC50 determination (isoform CYP3A4); assay type: in vitro ADME; conditions: for inhibition at 0.1 µM / inhibition at 0.25 µM / inhibition at 1 µM / inhibition at 2.5 µM / inhibition at 10 µM / inhibition at 25 µM: human; for inhibition at 0.1 µM: CYP3A4, 0.1 μM; for inhibition at 0.25 µM: CYP3A4, 0.25 μM; for inhibition at 1 µM: CYP3A4, 1 μM; for inhibition at 2.5 µM: CYP3A4, 2.5 μM; for inhibition at 10 µM: CYP3A4, 10 μM; for inhibition at 25 µM: CYP3A4, 25 μM
Chain of CYP3A4 (P08684 whole entry, canonical isoform): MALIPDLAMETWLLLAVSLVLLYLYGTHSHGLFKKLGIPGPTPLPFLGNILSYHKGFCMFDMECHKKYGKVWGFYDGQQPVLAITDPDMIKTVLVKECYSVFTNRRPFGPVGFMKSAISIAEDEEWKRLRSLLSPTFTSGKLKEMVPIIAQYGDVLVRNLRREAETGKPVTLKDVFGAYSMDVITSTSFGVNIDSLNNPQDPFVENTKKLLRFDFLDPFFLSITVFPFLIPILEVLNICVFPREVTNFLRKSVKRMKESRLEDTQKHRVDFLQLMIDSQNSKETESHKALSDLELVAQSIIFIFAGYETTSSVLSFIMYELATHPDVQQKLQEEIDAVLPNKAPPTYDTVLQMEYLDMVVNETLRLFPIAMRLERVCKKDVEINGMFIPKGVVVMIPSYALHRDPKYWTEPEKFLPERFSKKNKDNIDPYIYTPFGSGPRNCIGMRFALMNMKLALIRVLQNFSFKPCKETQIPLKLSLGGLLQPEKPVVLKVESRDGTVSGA
Excerpt: Two thirds of drugs cleared by metabolism are metabolised at least in part by the cytochrome P450 (CYP) enzymes with the isoform CYP3A4 accounting for almost 50% of all CYP activity. For this reason, we tested whether CYP3A4 is implicated in the clearance of o-TFB-Tyr. […]

[8] = system: HeLa cells; test: MTT cytotoxicity assay in HeLa cells; assay type: cell-based
Protocol: The entirety of the following protocol was carried out under aseptic conditions. HeLa cells were cultured in Dulbecco's Modified Eagle's Medium (DMEM) supplemented with 10% Fetal Bovine Serum (FBS) (Sigma F7524). Cells were counted and seeded into clear bottom 96-well plates (Greiner Bio-One) at density 6,000 cells/well. 100 μl of cells were added to each well and placed in the incubator overnight. The following day medium was aspired and 100 μL of treatment was added to wells. Cells were treated with controls (medium alone, Reversine 5 μM, Apcin 25 μM). […]
In vitro cytotoxic analysis involved quantitative measurements of cell proliferation and the subsequent assessment of the relative toxicity of the compounds. (3-(4,5-Dimethylthiazol-2-yl)-2,5-Diphenyltertrazolium Bromide (MTT) is a widely utilised cytotoxic assay that measures cellular metabolic activity as an indicator for cell viability, proliferation and cytotoxicity from the reduction of water soluble yellow tetrazole MTT to insoluble purple formazan crystals by mitochondrial dehydrogenases. The insoluble purple crystalline product was dissolved in DMSO and the resulting coloured solution quantified by measuring the absorbance (570 nm). Reduction can only occur when mitochondrial reductive enzymes are active, thus a direct correlation to the number of viable cells. […]

[9] = system: Caco-2 cells; test: Intestinal permeability assay in Caco-2 cells; assay type: in vitro ADME, human
Protocol: (§2) This was determined using an intestinal permeability assay in Caco-2 cells, a human colorectal adenocarcinoma cell line (see FIG. 4).

[10] = Intestinal permeability assay in Caco-2 cells; assay type: in vitro ADME, human; conditions: human
Protocol: as §2

[11] = system: plasma protein; test: Plasma protein binding assay (mouse); assay type: in vitro ADME
Excerpt: as §1

[12] = Plasma protein binding assay (mouse); assay type: in vitro ADME; conditions: plasma spiked 1 side; for fraction unbound: plasma
Excerpt: as §1

[13] = kinetic solubility, turbidimetric
[14] = read-out: Fraction unbound Replicate 1
[15] = read-out: Fraction unbound Replicate 2
[16] = read-out: Fraction unbound Replicate 3
[17] = read-out: Mean fraction unbound
[18] = probe testosterone, read-out: % inhibition with substrate testosterone
[19] = read-out: % inhibition with substrate midazolam

SMILES: Cc1ncc([N+](=O)[O-])n1CCOC(=O)NC(Nc1ncccn1)C(Cl)(Cl)Cl (stereo not shown) [Apcin, reference compound]
- Inhibition of Cyclin B ubiquitylation by APC/C / APC/C activation by Cdc20 [1]: comparatively less effective than compound o-TFB-Tyr

SMILES: c1nc2nc(Nc3ccc(N4CCOCC4)cc3)nc(NC3CCCCC3)c2[nH]1 [Reversine, reference compound]
- Number of clones [2]: lower number of triple negative breast cancer cell clones

- Solubility in aqueous solutions [3]: readily soluble in aqueous solutions
- Estimated Precipitation Range, Calculated mid-range [3, 13]: >100 µM
- Estimated Precipitation Range, Lower bound [3, 13]: 100 µM
- Estimated Precipitation Range, Upper bound [3, 13]: >100 µM
- Metabolic stability ([4]; Human microsomes): stable
- Compound remaining (% of 0 min) ([4]; Human, 0 min): 100 % of 0 min
- Compound remaining (% of 0 min) ([4]; Human, 5 min): 107 % of 0 min
- Compound remaining (% of 0 min) ([4]; Human, 15 min): 43.7 % of 0 min
- Compound remaining (% of 0 min) ([4]; Human, 30 min): 19.3 % of 0 min
- Compound remaining (% of 0 min) ([4]; Human, 45 min): 8 % of 0 min and 8.23 % of 0 min
- Compound remaining (% of 0 min), Control ([4]; Human, Control incubation): 89.8 % of 0 min
- recovery [6]: 101%
- fraction unbound [6, 14]: 0.352
- fraction unbound [6, 15]: 0.328
- fraction unbound [6, 16]: 0.304
- fraction unbound [6, 17]: 0.328
- inhibition at 0.1 µM [7, 18]: -0.99%
- inhibition at 0.25 µM [7, 18]: 0.136%
- inhibition at 1 µM [7, 18]: 4.21%
- inhibition at 2.5 µM [7, 18]: 49%
- inhibition at 10 µM [7, 18]: 77.3%
- inhibition at 25 µM [7, 18]: 89.5%
- inhibition at 0.1 µM [7, 19]: 13.7%
- inhibition at 0.25 µM [7, 19]: 22.5%
- inhibition at 1 µM [7, 19]: 47.5%
- inhibition at 2.5 µM [7, 19]: 65.6%
- inhibition at 10 µM [7, 19]: 84.4%
- inhibition at 25 µM [7, 19]: 91.1%
- Active transport by membrane proteins such as ABC transporters ([9]; Caco2): not actively transported
- Direction A to B Mean Papp ([9]; Caco2, A to B): 22.1 ×10⁻⁶ cm/s
- Direction B to A Mean Papp ([9]; Caco2, B to A): 19.1 ×10⁻⁶ cm/s
- recovery ([10]; Caco-2, Caco2, A to B, read-out: Direction A to B Mean % recovery): 62.8%
- recovery ([10]; Caco-2, Caco2, B to A, read-out: Direction B to A Mean % recovery): 88.9%
- efflux ratio ([10]; Caco-2, Caco2, read-out: Efflux ratio (Mean Papp B to A/Mean Papp A to B)): 0.862
- recovery [12]: 102%
- fraction unbound [12, 14]: 0.28
- fraction unbound [12, 15]: 0.28
- fraction unbound [12, 16]: 0.301
- fraction unbound [12, 17]: 0.287
SMILES: N[C@@H](Cc1ccc(O)cc1)C(=O)NCc1ccccc1C(F)(F)F [o-TFB-Tyr, (2S)-2-amino-N-[2-(trifluoromethyl)benzyl]-3-[4-(hydroxy)phenyl]propanamide]
- Inhibition of Cyclin B ubiquitylation by APC/C / APC/C activation by Cdc20 [1]: confirmed the inhibitory effect of this compound on APC/C activation by Cdc20; also recorded: confirmed the inhibition of APC/C activation by Cdc20; also recorded: causes inhibition of Cyclin B ubiquitylation by APC/C
- Non-specific plasma protein binding [5]: absence of non-specific plasma protein binding
- IC50 compared with control compounds ([7]; CYP3A4, midazolam and testosterone as substrates): much higher than that of controls compounds
- Relative cytotoxicity compared with other compounds ([8]; MTT, FIGS. 5 and 6): higher cytotoxic effect
- Cytotoxic activity, concentration range ([8]; cytotoxicity and clonogenic studies): 200 to 10 μM
- Diffusion across the membrane ([9]; Caco2): diffuses freely across the semipermeable membrane in both directions
- Number of clones [2]: lower number of triple negative breast cancer cell clones
- Non-specific plasma protein binding [11]: absence of non-specific plasma protein binding
